From the supplement of paper PMC12463676, “Small-molecule dissolution of stress granules by redox modulation benefits ALS models” (Nature Chemical Biology, 2025)

Legend:
lipoamide = compound: NC(=O)CCCCC1CCSS1 [lipoamide]; assay: thermal stability z-score vs DMSO; higher = more thermally stabilized by treatment; conditions: HeLa, lipoamide concentration 100 µM
Method: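 Cellular thermal proteome profiling in HeLa cells. Cells were treated with 100 µM lipoamide for 1 h, with or without 1 mM arsenate for a further 1 h, then heated to ten temperatures (37-66.3 °C), and soluble protein was quantified by TMT mass spectrometry relative to 0.1% DMSO controls. The thermal stability score (sum of log2 fold changes minus the abundance score) was transformed to a z-score; mean of n = 3 experiments.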

potassium arsenate = compound: O=[As]([O-])(O)O.[K+] [potassium arsenate]; assay: as above; conditions: HeLa; arsenate concentration 1 mM
Method: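 Cellular thermal proteome profiling in HeLa cells treated with 1 mM arsenate for 1 h (DMSO pretreatment), heated to ten temperatures (37-66.3 °C). Soluble protein was quantified by TMT mass spectrometry relative to DMSO controls; the thermal stability score was transformed to a z-score; mean of n = 3 experiments.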

[1] = arsenate co-treatment: 1 mM arsenate 1 h
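Note: each temperature applied for 3 min, abundance score taken as mean log2 fold change at the two lowest temperatures, z-score obtained by mean subtraction and division by SD.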

## GALNT10 (UniProt Q86SR1)
lipoamide; [1]
  thermal stability z-score: -0.462
lipoamide; arsenate co-treatment: none
  thermal stability z-score: 0.0888
Potassium arsenate
  thermal stability z-score: 0.557

## SHMT1 (UniProt P34896)
lipoamide; [1]
  thermal stability z-score: 0.374
lipoamide; arsenate co-treatment: none
  thermal stability z-score: -0.0345
Potassium arsenate
  thermal stability z-score: 0.764

## PXDN (UniProt Q92626)
lipoamide; [1]
  thermal stability z-score: -1.65
lipoamide; arsenate co-treatment: none
  thermal stability z-score: -1.61
Potassium arsenate
  thermal stability z-score: 0.0514

## KIF13A (UniProt Q9H1H9)
lipoamide; [1]
  thermal stability z-score: 0.286
lipoamide; arsenate co-treatment: none
  thermal stability z-score: -0.0098
Potassium arsenate
  thermal stability z-score: 0.0799

## LRRC57 (UniProt Q8N9N7)
lipoamide; [1]
  thermal stability z-score: 0.252
lipoamide; arsenate co-treatment: none
  thermal stability z-score: -0.185
Potassium arsenate
  thermal stability z-score: -0.186

## METTL16 (UniProt Q86W50)
lipoamide; [1]
  thermal stability z-score: -0.248
lipoamide; arsenate co-treatment: none
  thermal stability z-score: -0.347
Potassium arsenate
  thermal stability z-score: -0.0708

## ENOSF1 (UniProt Q7L5Y1)
UniProt Q7L5Y1, sequence (Q7L5Y1 whole entry): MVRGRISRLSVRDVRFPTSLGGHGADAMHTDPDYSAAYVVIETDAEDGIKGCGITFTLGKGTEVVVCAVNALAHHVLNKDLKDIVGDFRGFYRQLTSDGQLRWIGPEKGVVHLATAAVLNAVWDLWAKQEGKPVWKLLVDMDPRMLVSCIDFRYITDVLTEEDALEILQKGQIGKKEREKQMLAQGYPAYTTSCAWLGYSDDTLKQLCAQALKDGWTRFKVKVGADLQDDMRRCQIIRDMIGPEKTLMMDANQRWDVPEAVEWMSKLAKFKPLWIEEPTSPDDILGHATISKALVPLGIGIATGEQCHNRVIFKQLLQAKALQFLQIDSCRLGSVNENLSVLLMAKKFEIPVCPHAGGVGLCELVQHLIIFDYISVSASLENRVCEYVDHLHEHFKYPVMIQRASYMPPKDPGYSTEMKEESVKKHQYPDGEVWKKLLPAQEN
lipoamide; [1]
  thermal stability z-score: -0.0529
lipoamide; arsenate co-treatment: none
  thermal stability z-score: 0.0795
Potassium arsenate
  thermal stability z-score: -1.01

## AACS (UniProt Q86V21)
UniProt Q86V21, sequence (Q86V21 whole entry): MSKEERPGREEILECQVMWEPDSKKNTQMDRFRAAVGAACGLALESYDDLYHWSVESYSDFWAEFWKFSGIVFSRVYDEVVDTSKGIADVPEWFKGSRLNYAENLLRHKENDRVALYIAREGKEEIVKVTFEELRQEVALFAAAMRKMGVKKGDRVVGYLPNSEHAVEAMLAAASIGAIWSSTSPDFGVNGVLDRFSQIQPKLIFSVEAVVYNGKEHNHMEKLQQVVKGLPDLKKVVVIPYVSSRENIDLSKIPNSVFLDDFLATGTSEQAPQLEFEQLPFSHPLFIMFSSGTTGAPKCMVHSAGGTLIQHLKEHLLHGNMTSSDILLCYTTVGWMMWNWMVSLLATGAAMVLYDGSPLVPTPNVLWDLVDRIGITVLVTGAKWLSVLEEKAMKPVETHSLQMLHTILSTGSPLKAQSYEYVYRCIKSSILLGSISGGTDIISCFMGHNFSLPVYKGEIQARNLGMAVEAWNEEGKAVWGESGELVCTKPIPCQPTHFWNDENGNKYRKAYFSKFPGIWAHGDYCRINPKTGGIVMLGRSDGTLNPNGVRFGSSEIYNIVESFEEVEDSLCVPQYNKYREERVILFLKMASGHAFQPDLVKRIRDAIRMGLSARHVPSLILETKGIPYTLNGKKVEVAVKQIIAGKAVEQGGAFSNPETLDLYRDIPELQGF
lipoamide; [1]
  thermal stability z-score: -0.257
lipoamide; arsenate co-treatment: none
  thermal stability z-score: -0.135
Potassium arsenate
  thermal stability z-score: 0.635

## FH (UniProt P07954)
lipoamide; [1]
  thermal stability z-score: 0.0704
lipoamide; arsenate co-treatment: none
  thermal stability z-score: 0.0826
Potassium arsenate
  thermal stability z-score: -1.66

## DDAH2 (UniProt O95865)
lipoamide; [1]
  thermal stability z-score: 0.838
lipoamide; arsenate co-treatment: none
  thermal stability z-score: 0.743
Potassium arsenate
  thermal stability z-score: 0.22

## GDPD1 (UniProt Q8N9F7)
UniProt Q8N9F7, sequence (Q8N9F7 whole entry): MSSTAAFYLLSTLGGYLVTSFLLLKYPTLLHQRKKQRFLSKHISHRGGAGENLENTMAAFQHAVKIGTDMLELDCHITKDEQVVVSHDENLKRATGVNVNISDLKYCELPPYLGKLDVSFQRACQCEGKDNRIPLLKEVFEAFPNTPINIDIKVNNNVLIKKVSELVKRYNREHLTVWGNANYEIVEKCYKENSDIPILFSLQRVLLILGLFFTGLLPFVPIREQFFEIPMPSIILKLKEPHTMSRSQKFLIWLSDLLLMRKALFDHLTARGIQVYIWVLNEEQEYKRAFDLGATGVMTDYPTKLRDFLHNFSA
lipoamide; [1]
  thermal stability z-score: -0.226
lipoamide; arsenate co-treatment: none
  thermal stability z-score: -0.624
Potassium arsenate
  thermal stability z-score: -1.05

## PFDN2 (UniProt Q9UHV9)
UniProt Q9UHV9, sequence (Q9UHV9 whole entry): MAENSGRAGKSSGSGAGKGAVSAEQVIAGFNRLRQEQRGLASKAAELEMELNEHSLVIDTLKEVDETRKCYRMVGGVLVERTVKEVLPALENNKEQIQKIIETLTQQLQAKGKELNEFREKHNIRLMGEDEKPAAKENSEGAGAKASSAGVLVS
lipoamide; [1]
  thermal stability z-score: 0.967
lipoamide; arsenate co-treatment: none
  thermal stability z-score: 1.21
Potassium arsenate
  thermal stability z-score: 0.132

## SMARCAL1 (UniProt Q9NZC9)
lipoamide; [1]
  thermal stability z-score: 0.0881
lipoamide; arsenate co-treatment: none
  thermal stability z-score: -0.0213
Potassium arsenate
  thermal stability z-score: -0.0552

## C1QBP (UniProt Q07021)
UniProt Q07021, sequence (Q07021 whole entry): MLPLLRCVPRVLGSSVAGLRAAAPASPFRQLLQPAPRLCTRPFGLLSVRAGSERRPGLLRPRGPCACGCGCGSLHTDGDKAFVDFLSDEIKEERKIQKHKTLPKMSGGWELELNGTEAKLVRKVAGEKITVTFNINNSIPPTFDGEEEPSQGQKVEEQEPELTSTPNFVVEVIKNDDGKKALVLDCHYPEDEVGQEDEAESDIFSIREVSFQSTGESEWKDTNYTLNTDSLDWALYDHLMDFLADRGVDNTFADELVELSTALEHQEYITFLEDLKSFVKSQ
lipoamide; [1]
  thermal stability z-score: -0.549
lipoamide; arsenate co-treatment: none
  thermal stability z-score: 0.0636
Potassium arsenate
  thermal stability z-score: -1.28

## CPLX1 (UniProt O14810)
UniProt O14810, sequence (O14810 whole entry): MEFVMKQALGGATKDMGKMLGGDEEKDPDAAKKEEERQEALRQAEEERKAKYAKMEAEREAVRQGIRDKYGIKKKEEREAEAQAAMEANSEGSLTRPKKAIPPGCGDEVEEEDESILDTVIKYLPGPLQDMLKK
lipoamide; [1]
  thermal stability z-score: 0.844
lipoamide; arsenate co-treatment: none
  thermal stability z-score: 1.45
Potassium arsenate
  thermal stability z-score: -0.346

## NPC1 (UniProt O15118)
lipoamide; [1]
  thermal stability z-score: -0.389
lipoamide; arsenate co-treatment: none
  thermal stability z-score: -0.182
Potassium arsenate
  thermal stability z-score: 0.0121

## FNDC3A (UniProt Q9Y2H6)
lipoamide; [1]
  thermal stability z-score: -0.542
lipoamide; arsenate co-treatment: none
  thermal stability z-score: 0.324
Potassium arsenate
  thermal stability z-score: 0.846

## NOL7 (UniProt Q9UMY1)
lipoamide; [1]
  thermal stability z-score: 0.225
lipoamide; arsenate co-treatment: none
  thermal stability z-score: -0.325
Potassium arsenate
  thermal stability z-score: -0.698

## RABL2A|RABL2B
lipoamide; [1]
  thermal stability z-score: 0.0788
lipoamide; arsenate co-treatment: none
  thermal stability z-score: -0.011
Potassium arsenate
  thermal stability z-score: -0.151

## TBC1D2 (UniProt Q9BYX2)
lipoamide; [1]
  thermal stability z-score: -0.151
lipoamide; arsenate co-treatment: none
  thermal stability z-score: 0.0824
Potassium arsenate
  thermal stability z-score: 0.225

## CUL7 (UniProt Q14999)
lipoamide; [1]
  thermal stability z-score: 0.0636
lipoamide; arsenate co-treatment: none
  thermal stability z-score: 0.0136
Potassium arsenate
  thermal stability z-score: -0.113

## EIF2AK4 (UniProt Q9P2K8)
lipoamide; [1]
  thermal stability z-score: 0.566
lipoamide; arsenate co-treatment: none
  thermal stability z-score: 0.141
Potassium arsenate
  thermal stability z-score: 2.05

## EDC4 (UniProt Q6P2E9)
lipoamide; [1]
  thermal stability z-score: -0.258
lipoamide; arsenate co-treatment: none
  thermal stability z-score: 0.0716
Potassium arsenate
  thermal stability z-score: -0.454

## ANKRD17 (UniProt O75179)
lipoamide; [1]
  thermal stability z-score: -0.568
lipoamide; arsenate co-treatment: none
  thermal stability z-score: -0.123
Potassium arsenate
  thermal stability z-score: -0.27

## C2ORF47 (UniProt Q8WWC4)
lipoamide; [1]
  thermal stability z-score: 0.0998
lipoamide; arsenate co-treatment: none
  thermal stability z-score: -0.181
Potassium arsenate
  thermal stability z-score: 1.09

## CAPNS1 (UniProt P04632)
lipoamide; [1]
  thermal stability z-score: 0.532
lipoamide; arsenate co-treatment: none
  thermal stability z-score: 0.582
Potassium arsenate
  thermal stability z-score: 0.0106

## TMEM259 (UniProt Q4ZIN3)
lipoamide; [1]
  thermal stability z-score: -0.193
lipoamide; arsenate co-treatment: none
  thermal stability z-score: -0.832
Potassium arsenate
  thermal stability z-score: 0.701

## PRPF31 (UniProt Q8WWY3)
lipoamide; [1]
  thermal stability z-score: -0.0354
lipoamide; arsenate co-treatment: none
  thermal stability z-score: -0.524
Potassium arsenate
  thermal stability z-score: -0.687

## GPRC5A (UniProt Q8NFJ5)
lipoamide; [1]
  thermal stability z-score: 0.158
lipoamide; arsenate co-treatment: none
  thermal stability z-score: -0.194
Potassium arsenate
  thermal stability z-score: 0.816

## SLC22A18 (UniProt Q96BI1)
lipoamide; [1]
  thermal stability z-score: 0.00763
lipoamide; arsenate co-treatment: none
  thermal stability z-score: -0.34
Potassium arsenate
  thermal stability z-score: -0.0251

## NEFH (UniProt P12036)
lipoamide; [1]
  thermal stability z-score: -0.156
lipoamide; arsenate co-treatment: none
  thermal stability z-score: -0.292
Potassium arsenate
  thermal stability z-score: 0.4

## SLC4A7 (UniProt Q9Y6M7)
lipoamide; [1]
  thermal stability z-score: -0.0849
lipoamide; arsenate co-treatment: none
  thermal stability z-score: 0.00104
Potassium arsenate
  thermal stability z-score: -0.747

## PIK3CB (UniProt P42338)
lipoamide; [1]
  thermal stability z-score: -0.054
lipoamide; arsenate co-treatment: none
  thermal stability z-score: -0.193
Potassium arsenate
  thermal stability z-score: -0.371

## SESTD1 (UniProt Q86VW0)
lipoamide; [1]
  thermal stability z-score: 0.202
lipoamide; arsenate co-treatment: none
  thermal stability z-score: 0.128
Potassium arsenate
  thermal stability z-score: 0.352

## NCKIPSD (UniProt Q9NZQ3)
lipoamide; [1]
  thermal stability z-score: 0.127
lipoamide; arsenate co-treatment: none
  thermal stability z-score: 0.0916
Potassium arsenate
  thermal stability z-score: 0.255

## FLII (UniProt Q13045)
lipoamide; [1]
  thermal stability z-score: -0.35
lipoamide; arsenate co-treatment: none
  thermal stability z-score: 0.0176
Potassium arsenate
  thermal stability z-score: 0.68

## GLTSCR2 (UniProt Q9NZM5)
lipoamide; [1]
  thermal stability z-score: 0.409
lipoamide; arsenate co-treatment: none
  thermal stability z-score: -0.522
Potassium arsenate
  thermal stability z-score: -2.53

## TAP2 (UniProt Q03519)
UniProt Q03519, sequence (Q03519 whole entry): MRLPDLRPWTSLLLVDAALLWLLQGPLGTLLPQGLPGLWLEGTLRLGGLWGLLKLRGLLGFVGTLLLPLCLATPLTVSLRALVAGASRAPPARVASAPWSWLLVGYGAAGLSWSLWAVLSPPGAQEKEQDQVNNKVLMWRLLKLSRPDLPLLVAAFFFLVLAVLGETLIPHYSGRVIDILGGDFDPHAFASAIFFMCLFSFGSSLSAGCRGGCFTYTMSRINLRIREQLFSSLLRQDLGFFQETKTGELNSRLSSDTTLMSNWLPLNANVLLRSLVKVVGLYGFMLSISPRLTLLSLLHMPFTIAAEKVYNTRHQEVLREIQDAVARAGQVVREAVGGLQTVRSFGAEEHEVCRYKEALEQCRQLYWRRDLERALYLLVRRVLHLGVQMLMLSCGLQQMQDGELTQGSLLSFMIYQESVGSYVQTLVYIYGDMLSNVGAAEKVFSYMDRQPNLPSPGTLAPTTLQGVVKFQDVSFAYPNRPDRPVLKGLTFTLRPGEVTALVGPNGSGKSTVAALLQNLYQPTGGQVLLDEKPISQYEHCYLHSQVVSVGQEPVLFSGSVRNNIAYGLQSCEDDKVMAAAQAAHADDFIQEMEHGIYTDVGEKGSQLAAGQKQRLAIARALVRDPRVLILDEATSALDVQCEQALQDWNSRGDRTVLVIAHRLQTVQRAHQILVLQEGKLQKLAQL
lipoamide; [1]
  thermal stability z-score: -0.828
lipoamide; arsenate co-treatment: none
  thermal stability z-score: -0.526
Potassium arsenate
  thermal stability z-score: 0.366

## KDM3A (UniProt Q9Y4C1)
lipoamide; [1]
  thermal stability z-score: 0.00835
lipoamide; arsenate co-treatment: none
  thermal stability z-score: -0.0932
Potassium arsenate
  thermal stability z-score: -0.0481

## HEATR6 (UniProt Q6AI08)
UniProt Q6AI08, sequence (Q6AI08 whole entry): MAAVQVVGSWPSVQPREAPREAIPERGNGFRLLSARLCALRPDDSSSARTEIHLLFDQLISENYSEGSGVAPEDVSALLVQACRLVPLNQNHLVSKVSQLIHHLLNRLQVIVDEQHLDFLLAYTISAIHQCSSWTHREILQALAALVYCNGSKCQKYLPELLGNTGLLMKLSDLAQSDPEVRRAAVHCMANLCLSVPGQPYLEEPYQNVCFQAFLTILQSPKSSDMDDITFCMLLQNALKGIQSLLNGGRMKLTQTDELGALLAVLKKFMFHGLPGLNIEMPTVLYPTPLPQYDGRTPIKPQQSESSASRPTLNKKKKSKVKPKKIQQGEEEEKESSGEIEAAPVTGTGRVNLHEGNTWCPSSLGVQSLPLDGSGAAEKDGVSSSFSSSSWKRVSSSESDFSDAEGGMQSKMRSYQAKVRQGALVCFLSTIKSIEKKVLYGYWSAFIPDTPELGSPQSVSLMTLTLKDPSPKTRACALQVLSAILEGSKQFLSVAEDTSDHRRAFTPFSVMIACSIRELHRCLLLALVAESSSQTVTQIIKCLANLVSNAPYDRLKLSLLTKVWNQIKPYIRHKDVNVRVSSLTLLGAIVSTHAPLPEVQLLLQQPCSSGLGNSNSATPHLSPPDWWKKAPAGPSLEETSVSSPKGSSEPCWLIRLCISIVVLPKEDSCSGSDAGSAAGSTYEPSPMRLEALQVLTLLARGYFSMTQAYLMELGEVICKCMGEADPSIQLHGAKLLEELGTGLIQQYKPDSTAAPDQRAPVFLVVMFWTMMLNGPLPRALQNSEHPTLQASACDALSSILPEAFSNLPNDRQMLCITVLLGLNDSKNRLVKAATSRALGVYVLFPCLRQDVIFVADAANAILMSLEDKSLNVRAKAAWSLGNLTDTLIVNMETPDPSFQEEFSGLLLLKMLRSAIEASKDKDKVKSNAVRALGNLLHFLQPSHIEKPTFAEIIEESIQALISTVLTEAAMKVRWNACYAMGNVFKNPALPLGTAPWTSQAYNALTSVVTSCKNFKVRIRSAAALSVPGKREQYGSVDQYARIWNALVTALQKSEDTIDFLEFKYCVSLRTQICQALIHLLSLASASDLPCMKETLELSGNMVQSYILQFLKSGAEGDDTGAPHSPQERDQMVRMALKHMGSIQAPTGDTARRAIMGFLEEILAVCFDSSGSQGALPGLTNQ
lipoamide; [1]
  thermal stability z-score: 0.393
lipoamide; arsenate co-treatment: none
  thermal stability z-score: 0.194
Potassium arsenate
  thermal stability z-score: 0.868

## LOXL2 (UniProt Q9Y4K0)
lipoamide; [1]
  thermal stability z-score: -1.8
lipoamide; arsenate co-treatment: none
  thermal stability z-score: -1.35
Potassium arsenate
  thermal stability z-score: -0.197

## TTC33 (UniProt Q6PID6)
lipoamide; [1]
  thermal stability z-score: 0.242
lipoamide; arsenate co-treatment: none
  thermal stability z-score: 0.0666
Potassium arsenate
  thermal stability z-score: -0.664

## FAM83G (UniProt A6ND36)
lipoamide; [1]
  thermal stability z-score: -0.123
lipoamide; arsenate co-treatment: none
  thermal stability z-score: 0.00979
Potassium arsenate
  thermal stability z-score: 0.138

## XRCC6 (UniProt P12956)
lipoamide; [1]
  thermal stability z-score: -0.75
lipoamide; arsenate co-treatment: none
  thermal stability z-score: 0.0871
Potassium arsenate
  thermal stability z-score: -0.634

## PSMB5 (UniProt P28074)
lipoamide; [1]
  thermal stability z-score: 0.395
lipoamide; arsenate co-treatment: none
  thermal stability z-score: 0.222
Potassium arsenate
  thermal stability z-score: 0.113

## NONO (UniProt Q15233)
lipoamide; [1]
  thermal stability z-score: 1.05
lipoamide; arsenate co-treatment: none
  thermal stability z-score: 0.927
Potassium arsenate
  thermal stability z-score: -0.137

## RFX1 (UniProt P22670)
lipoamide; [1]
  thermal stability z-score: 1.04
lipoamide; arsenate co-treatment: none
  thermal stability z-score: 0.453
Potassium arsenate
  thermal stability z-score: 0.128

## CEP152 (UniProt O94986)
lipoamide; [1]
  thermal stability z-score: -0.185
lipoamide; arsenate co-treatment: none
  thermal stability z-score: -0.184
Potassium arsenate
  thermal stability z-score: 0.269

## IRF2BP2 (UniProt Q7Z5L9)
lipoamide; [1]
  thermal stability z-score: 0.371
lipoamide; arsenate co-treatment: none
  thermal stability z-score: -0.0192
Potassium arsenate
  thermal stability z-score: -2.51

## HERC1 (UniProt Q15751)
lipoamide; [1]
  thermal stability z-score: -0.83
lipoamide; arsenate co-treatment: none
  thermal stability z-score: -0.54
Potassium arsenate
  thermal stability z-score: -0.0795

## NPTX1 (UniProt Q15818)
lipoamide; [1]
  thermal stability z-score: -3.62
lipoamide; arsenate co-treatment: none
  thermal stability z-score: -3.29
Potassium arsenate
  thermal stability z-score: 0.869

## LIFR (UniProt P42702)
UniProt P42702, sequence (P42702 whole entry): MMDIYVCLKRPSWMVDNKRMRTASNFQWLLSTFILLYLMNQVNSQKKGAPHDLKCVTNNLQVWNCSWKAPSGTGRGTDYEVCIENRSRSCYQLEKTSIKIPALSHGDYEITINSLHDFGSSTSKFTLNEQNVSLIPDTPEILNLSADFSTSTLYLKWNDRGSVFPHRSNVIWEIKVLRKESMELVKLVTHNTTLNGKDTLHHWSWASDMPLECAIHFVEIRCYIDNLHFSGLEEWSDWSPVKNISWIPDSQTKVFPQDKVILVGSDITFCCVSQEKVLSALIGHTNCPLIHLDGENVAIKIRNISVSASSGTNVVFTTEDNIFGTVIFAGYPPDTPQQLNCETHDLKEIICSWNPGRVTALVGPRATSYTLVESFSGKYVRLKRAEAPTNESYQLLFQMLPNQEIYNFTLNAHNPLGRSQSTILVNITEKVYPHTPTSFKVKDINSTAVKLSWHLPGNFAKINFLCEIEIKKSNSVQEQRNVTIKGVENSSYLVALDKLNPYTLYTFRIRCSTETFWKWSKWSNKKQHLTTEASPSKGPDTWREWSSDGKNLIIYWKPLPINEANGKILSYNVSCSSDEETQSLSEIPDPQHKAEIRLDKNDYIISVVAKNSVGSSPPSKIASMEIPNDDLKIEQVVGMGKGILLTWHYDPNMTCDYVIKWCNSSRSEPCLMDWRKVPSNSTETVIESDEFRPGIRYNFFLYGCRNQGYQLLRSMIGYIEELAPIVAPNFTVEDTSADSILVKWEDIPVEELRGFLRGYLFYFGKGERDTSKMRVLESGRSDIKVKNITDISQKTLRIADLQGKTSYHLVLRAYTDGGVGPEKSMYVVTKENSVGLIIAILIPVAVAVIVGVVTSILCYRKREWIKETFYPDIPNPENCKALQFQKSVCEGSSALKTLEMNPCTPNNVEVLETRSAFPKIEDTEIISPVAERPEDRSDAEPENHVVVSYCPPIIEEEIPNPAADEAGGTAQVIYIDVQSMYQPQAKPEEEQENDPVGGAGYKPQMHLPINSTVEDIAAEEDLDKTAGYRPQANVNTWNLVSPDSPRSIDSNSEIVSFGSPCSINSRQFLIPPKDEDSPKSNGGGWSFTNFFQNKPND
lipoamide; [1]
  thermal stability z-score: -1.35
lipoamide; arsenate co-treatment: none
  thermal stability z-score: -0.675
Potassium arsenate
  thermal stability z-score: -0.287

## DHPS (UniProt P49366)
lipoamide; [1]
  thermal stability z-score: 0.538
lipoamide; arsenate co-treatment: none
  thermal stability z-score: 0.536
Potassium arsenate
  thermal stability z-score: 0.603

## KPNA6 (UniProt O60684)
lipoamide; [1]
  thermal stability z-score: -0.328
lipoamide; arsenate co-treatment: none
  thermal stability z-score: -0.314
Potassium arsenate
  thermal stability z-score: 0.446

## CEP83 (UniProt Q9Y592)
lipoamide; [1]
  thermal stability z-score: 0.829
lipoamide; arsenate co-treatment: none
  thermal stability z-score: 1.19
Potassium arsenate
  thermal stability z-score: -0.498
